Experimental data published in patent publication US11951151B2, “Compositions comprising antimicrobial peptides” (University of Pittsburgh—Of the Commonwealth System of …, priority 2019, dated 2024).
Entries after “also recorded” stand apart in the source; their conditions may differ.

Experiments:
[1] = test system: S. aureus SH1000 mature biofilms; experiment: S. aureus biofilm implant in vitro killing assay (mature biofilm on Kirschner wire, CFU analysis); format: cell-based, Staphylococcus aureus; conditions: for time to achieve 99.9% reduction of biofilm CFU compared to untreated implant pieces: treated in MHB media
Protocol: (§1) Bacterial strains and culture. S. aureus SH1000 was used for in vitro assays and the PJI animal model. SH1000 was inoculated in Tryptic Soy Broth (TSB, Becton Dickinson and Company) overnight at 37° C. with shaking at 250 rpm. Strains were diluted in Mueller Hinton Broth (MHB; Bectin Dickinson and Company) to a final concentration of 0.5×10^6 CFU/ml using the 0.5 MacFarland Standard (GFS Chemicals) and an Infinite M200 Spectrophotometer (Tecan). WLBU-2 (PLG0206) was supplied by Peptilogics (San Jose, California). All experiments were performed at least in triplicate at three separate times with freshly inoculated cultures.
S. aureus biofilm implant in vitro killing assays. Implant material was prepared from 0.6 mm diameter stainless steel Kirschner wire (Synthes) and cut into 6 mm length, autoclaved, and plated in wells along with SH1000 and all clinical strains at 1×10^6 CFU/ml. After plating, fresh MHB media was exchanged at 24 hours. At 48 hours, wire with mature biofilms were either placed into fresh MHB with either cefazolin or WLBU-2. Biofilms were treated with cefazolin at 0.13, 0.25, 0.5, and 1 mg/ml or WLBU-2 at 62, 125, 250, and 500 μg/ml. Cefazolin treated biofilm were removed 2, 6, and 24 hours after drug addition, WLBU-2 treated biofilm were removed 5 min, 20 min, 60 min, and 2 hours after drug addition. After treatment, Kirschner wires were placed in 1 ml of 1% Tween 20 and sonicated for 10 minutes. Sonicate was serially diluted and plated on TSA II with 5% sheep blood CS100 plates blood agar for colony forming unit (CFU) analysis. For pH analysis, prior to WLBU-2 addition, PBS was adjusted to more acidic pH using hydrochloric acid and more alkaline pH using ammonium hydroxide. Infected implant pieces were tested with WLBU-2 at both 0.5 and 1.0 μg/ml in PBS adjusted to pH of 6.5, 6.8, 7.0, 7.2, 7.4, and 8.0. Biofilm implant pieces were treated at very early time points of 2.5-20 minutes, then CFU analysis was performed.
as §1, with “Becton” for “Bectin”
S. aureus biofilm implant in vitro killing assays. Implant material was prepared from 0.6 mm diameter stainless steel Kirschner wire (Synthes) and cut into 6 mm length, autoclaved, and plated in wells along with SH1000 and all clinical strains at 1×10^6 CFU/ml. After plating, fresh MHB media was exchanged at 24 hours. At 48 hours, wire with mature biofilms were either placed into fresh MHB, normal saline, lactated ringers, or dPBS with fold dilutions of WLBU-2 at 62, 125, 250, 500, and 1000 μg/ml. dPBS solutions were prepared using any combination of the salt buffers listed in Table 3, dissolved in sterile, deionized water. After treatment, Kirschner wires were placed in 1 ml of 1% Tween 20 in dPBS and sonicated for 10 minutes. Sonicate was serially diluted and plated on TSA II with 5% sheep blood CS100 plates blood agar for colony forming unit (CFU) analysis. For pH analysis, prior to WLBU-2 addition, dPBS was adjusted to more acidic pH using hydrochloric acid and more alkaline pH using ammonium hydroxide. Infected implant pieces were tested with WLBU-2 at both 0.5 and 1.0 mg/ml in PBS adjusted to pH of 6.5, 6.8, 7.0, 7.2, 7.4, and 8.0. For ionic strength analysis, dPBS was adjusted to hypertonic conditions by addition of NaCl to dPBS (0.3 M) and hypotonic conditions by addition of deionized water to dPBS (0.08 M). […]

[2] = test system: S. aureus (strain: SH1000); experiment: Rabbit PJI model, I&D with PLG0206 and/or systemic cefazolin, implant and tibia CFU up to Day 28; format: in vivo, Staphylococcus aureus
Protocol: (§2) A PJI New Zealand White Rabbit Animal model was used. A 3D printed tibia titanium implant was placed in the knee, and inoculated with S. aureus (strain: SH1000, inoculation density 2×10^6) after closure of the arthrotomy.
(§3) The rabbit is anesthetized with ketamine 40 mg/kg and xylazine 2 mg/kg during surgery. A bone tunnel in the tibial canal is created using a drill with a 1.2 mm or 1.6 mm tungsten carbide drill bit. The bone tunnel is then dried and treated to simulate acute human PJI following primary arthroplasty. A 3D printed titanium implant will then be placed in the bone tunnel and the wound closed. Prior to closure of the superficial skin layer, 0.1 mL of 2×10^6 planktonic bacteria (S. aureus; strain: SH1000; CFU/rabbit) in saline is injected into the joint space. A closure is performed, and a biofilm is allowed to become established over 2 days.
At 2 days post infection I&D will be performed on the infected joint and treatments will begin. Animals will receive treatment with an I&D alone, I&D with PLG0206, systemic treatment with cefazolin, or both PLG0206 and cefazolin When an animal dies or is sick and needs to be euthanized, the implant and a part of the tibia will be collected post mortem and bacterial burden will be determined by CFU. All surviving animals will be euthanized on Day 28 and the implant and tibia will be collected post mortem for CFU analysis.

[3] = test system: S. aureus SH1000 biofilm on PJI implant; experiment: Periprosthetic Joint Infection Murine Washout Model (implant retrieved from mice, washed with peptide, CFU analysis); format: in vivo, Staphylococcus aureus; conditions: mouse
From the text: Periprosthetic Joint Infection Murine Washout Model. Twelve-week-old […] female mice (Jackson) were used for all experiments. Mice were anesthetized by 2% isoflurane, hair was removed from leg and treated with betadine. With a scalpel, a medial parapatellar incision was made, and lateral displacement of the quadriceps-patellar complex allowed for visualization of the femoral intercondylar notch. With a 25-gauge needle, the femoral intramedullary canal was manually reamed. Mature S. aureus biofilm previously established on a 0.6 mm wide/6 mm long Kirschner wire (Synthes) was inserted into the reamed canal, and sutured closed. 48 hours later, mice were euthanized and the infected Kirschner wire implant were extracted, placed in WLBU-2 at 1.0 mg/ml in PBS previously pH adjusted to 6.5, 7.0, 7.2, or 7.4 for 10 minutes, and then placed 1% Tween 20 on ice. Implants were sonicated for 10 minutes. Samples were serially diluted and plated on TSA II with 5% sheep blood CS100 plates for CFU analysis.

[4] = test system: S. aureus (strain: SH1000); experiment: Rabbit periprosthetic joint infection (PJI) model, ex vivo or in vivo treatment at I&D 2 days post infection, implant CFU; parameters: species or system Staphylococcus aureus
Protocol: as §2, §3
After 48 hours, animals were sacrificed and the implants were exposed to either topical cefazolin (10 mg/kg) or topical WLBU2 (1 mg/mL) in PBS (pH 7.4). Implants were sonicated 10 minutes, and colony forming unit (CFU) assay was performed on blood agar plates to quantify bacterial burden.
At 2 days post infection irrigation and debridement (I&D) was performed on the infected joint. Treatment with PLG0206 was administered at 1 mg/mL concentration (ex vivo or in vivo) and 0.5 mg/mL concentration (in vivo) at 15 (ex vivo and in vivo), and 7.5 minutes (in vivo) exposure times. For the ex vivo administration, the implant was removed and exposed to PLG0206 solution in a tube for 15 minutes. For the in vivo administration, irrigation and debridement on the joint was performed followed by PLG0206 treatment. The animals were euthanized after treatment, and the implants removed post mortem.

Cc1nnc(SCC2=C(C(=O)O)N3C(=O)[C@@H](NC(=O)Cn4cnnn4)[C@H]3SC2)s1 [Cefazolin, reference compound]
decrease in biofilm CFU over 6 hours ([1]; MHB, 6 hours): only a modest decrease | time to achieve 99.9% reduction of biofilm CFU compared to untreated implant pieces [1]: over 24 hours | reduction in bacterial burden ([2]; cefazolin treatment alone (Group 2)): 1.5 log

WLBU-2: RRWVRRVRRVWRRVVRVVRRWVRR (SEQ ID NO: 10); synthetically engineered cationic antimicrobial peptide (RRWVRRVRRVWRRVVRVVRRWVRR; Antimicrobial peptide WLBU-2)
contact time needed to achieve a three-log reduction in biofilm CFU ([1]; 1.0 mg/ml in 6.5 pH PBS): 15 minutes | contact time needed to achieve a three-log reduction in biofilm CFU ([1]; 1.0 mg/ml in 8.0 pH PBS): 2.5 minutes | biofilm CFU after treatment (sterile samples) ([1]; PBS pH 7.4): 0 CFU | biofilm CFU after treatment (sterile samples) ([1]; PBS pH 8.0): 0 CFU | reduction in biofilm CFU ([1]; dPBS at pH 7.5, 10 minutes, 62, 125, 250, 500 and 1000 μg/mL): three-log reduction or greater; also recorded: three-log reduction | reduction in bacterial biofilm ([1]; dPBS, pH 7.0, 62-1000 μg/ml, 10 minutes): over 99.9% | reduction in biofilm CFU ([1]; hypertonic dPBS at pH 7.5, 10 minutes): a three-log reduction was not achieved | biofilm CFU after treatment ([1]; hypotonic dPBS at pH 7.5, 10 minutes, 62, 125, 250, 500 and 1000 μg/mL): 0 CFU | time needed to obtain 0 CFU sterile samples, compared to hypertonic dPBS ([1]; hypotonic dPBS of 0.08 M): less time needed | time needed to obtain a three-log reduction, compared to hypertonic dPBS ([1]; hypotonic dPBS of 0.08 M): less time needed | time to achieve a 99.9% reduction in biofilm CFU ([1]; in buffered PBS, doses of 62-1000 μg/ml): ≤ 20 min | reduction in bacterial biofilm ([1]; lactated ringers, pH 6.5, 62-1000 μg/ml, 10 minutes): over 99.9% | reduction in bacterial biofilm CFUs ([1]; normal saline, measured pH of 5.8, 62-1000 μg/ml, 10 minutes): ~99% | contact time needed to obtain above a 99.9% clearance of biofilms ([1]; pH of the washout solution above 7.0): under 5 minutes | time to achieve 99.9% reduction of biofilm CFU compared to untreated implant pieces [1]: under 2 hours | biofilm CFU on PJI implant compared to No Drug group ([3]; 1.0 mg/ml in PBS pH 7.0, 10 minutes): significant reduction | biofilm CFU on PJI implant compared to No Drug group ([3]; 1.0 mg/ml in PBS pH 7.2, 10 minutes): significant reduction | biofilm CFU on PJI implant compared to No Drug group ([3]; 1.0 mg/ml in PBS pH 7.4, 10 minutes): significant reduction | biofilm CFU on PJI implant, washout with 7.4 pH compared to washout with 6.5 pH ([3]; 1.0 mg/ml in PBS, 10 minutes): significantly less; also recorded: significant reduction | reduction in bacterial burden ([2]; 1 mg/ml PLG0206 in combination with cefazolin (Group 4)): 2.5 log | bacterial burden in comparison to control ([2]; 1 mg/ml treatment alone (Group 3)): not significant | reduction in bacterial burden in comparison to control ([4]; ex vivo treatment, 1 mg/mL, 15 minutes): greater than 2 log | reduction in bacterial burden, 1 mg/ml for 15 minutes in comparison to 0.5 mg/ml ([4]; in vivo study): significantly greater reduction | reduction in bacterial burden in comparison to control ([4]; in vivo treatment after I&D): greater than 2 log
